{
  "source": "paper PMC10629879",
  "about": "(Frontiers in drug delivery, 2022)",
  "key": {"[1]": {"test_system": "isolated mouse brain microvessels", "test": "125I-insulin surface binding and internalization in isolated brain microvessels with endocytosis inhibitors", "type": "cell-based", "conditions": "relative to vehicle; for amount of 125I-insulin internalized, difference vs vehicle (increase): inhibitor 15 min 37°C (monensin 10 μM, p = 0.079 not significant; CPZ 2.8 mM in 20% MeOH, p = 0.018), then 125I-insulin 15 min 37°C, cytoplasmic + membrane fraction; for microvessel surface binding of 125I-insulin, difference vs vehicle (increase): ~90 μg protein, inhibitor 15 min 37°C (monensin 10 μM; CPZ 2.8 mM in 20% MeOH), then 125I-insulin 400,000 CPM 15 min 37°C, acid-wash reversible binding, gamma counter, 2-3 biological replicates", "protocol": "Whole brains were pooled and homogenized in chilled isolation buffer (DMEM, 25 mM HEPES, pH 7.4, 1% (w/v) dextran and 0.5% BSA) with a Dounce homogenizer. A range of 8–20 brains were pooled each experimental day. The homogenate was poured once through a 300 μm mesh, then twice through a 100 μm mesh. The filtrate was combined with an equivalent volume of chilled 40% dextran in isolation buffer and centrifuged at 3000 g for 30 min at 4°C. The pellet was resuspended in 1 ml of isolation buffer and pipetted twice through a 20 μm pluriStrainer® mesh (pluriSelect Life Science, Leipzig, Germany), before a final rinse with isolation buffer. […] The pellet was resuspended in 1 ml of PBS and spun at 500 g for 3 min at 4°C three times.\nBriefly, the suspended pellet was evenly split between treatment groups, with two technical replicates per group. On average, each binding assay involved approximately 90 μg protein from the isolated microvessels in 40–45 μL. Each study was repeated with separate isolated microvessels for 2-3 biological replicates per study. Microvessels were treated with vehicle or an endocytosis inhibitor. Inhibitors were made up in incubation buffer and/or MeOH. Final concentrations for inhibitors include: monensin (10 μM), CPZ (2.8 mM in 20% MeOH), and filipin III (2 μg/ml in 0.2% MeOH) with respective vehicle MeOH controls. […] Samples were centrifuged at 10,000 g for 2 min at 4°C, and the supernatants were collected. The pellets were resuspended in incubation buffer, centrifuged at 4,225 g for 2 min at 4°C, and the supernatants were combined with the previous ones. The radioactivity in the pellets and combined supernatants were measured in a gamma counter (Wizard^2, PerkinElmer). In order to determine the amount of substrate bound to the cell surface, the pellet was resuspended in 400 μL of chilled acid wash buffer (0.2 M glycine, 0.15 M NaCl) to strip the surface of reversibly bound substrates on ice for 6 min, centrifuged at 4,225 g for 2 min at 4°C. The supernatant was collected and measured in a gamma counter as before to determine the amount of reversible binding (RB) at the plasma membrane, which we have called surface binding. To determine the amount of substrate internalized, the pellet was resuspended in 400 μL of chilled 1% BSA in deionized water and incubated for 1 h on ice to lyse the cells. The sample was centrifuged as before, the supernatant was collected, and the pellet was suspended again in 1% BSA and incubated on ice for 30 min. The sample was centrifuged, the supernatant was combined with the previous one, and both supernatant and pellet were measured in a gamma counter. […]\nPercentages were calculated by dividing the measurement of interest (surface binding or internalization) by the total counts present in the sample and multiplying by 100. […]"}, "blood-brain barrier [2]": {"test_system": "blood-brain barrier", "type": "in vivo, mouse", "conditions": "50 μM monensin IV pre-treatment 30 min vs vehicle", "protocol": "The reaction started with the addition of 10 μg chloramine-T in 0.25 M PB and terminated 1 min later with addition of 100 μg sodium metabisulfite. ^131I-albumin was labeled was labeled the same way except used 2 mCi ^131I (Perkin-Elmer, Waltham, MA, United States). ^131I-albumin was used as a vascular marker for the ^125I-transferrin multiple-time regression analysis transport studies as previously described ([Rhea et al., 2018]). A Sephadex G-10 column (Sigma-Aldrich) was used to separate labeled peptides and proteins from free iodine. Protein labeling was characterized by 15% trichloroacetic acid (TCA) precipitation. The radioactively labeled substrates we injected were quality-controlled materials, negating the overestimation of free ^125I.\nFIGURE 3 Role of clathrin in transferrin hypothalamic BBB transport."}, "insulin receptor": {"molecular_target": "T1, insulin receptor (Mus musculus, UniProt P15208)", "T1 construct": "from tissue; host or cells: living mouse; brain vasculature (olfactory bulb and 10 dissected brain regions)", "T1 sequence (P15208 28-748 limits assumed)": "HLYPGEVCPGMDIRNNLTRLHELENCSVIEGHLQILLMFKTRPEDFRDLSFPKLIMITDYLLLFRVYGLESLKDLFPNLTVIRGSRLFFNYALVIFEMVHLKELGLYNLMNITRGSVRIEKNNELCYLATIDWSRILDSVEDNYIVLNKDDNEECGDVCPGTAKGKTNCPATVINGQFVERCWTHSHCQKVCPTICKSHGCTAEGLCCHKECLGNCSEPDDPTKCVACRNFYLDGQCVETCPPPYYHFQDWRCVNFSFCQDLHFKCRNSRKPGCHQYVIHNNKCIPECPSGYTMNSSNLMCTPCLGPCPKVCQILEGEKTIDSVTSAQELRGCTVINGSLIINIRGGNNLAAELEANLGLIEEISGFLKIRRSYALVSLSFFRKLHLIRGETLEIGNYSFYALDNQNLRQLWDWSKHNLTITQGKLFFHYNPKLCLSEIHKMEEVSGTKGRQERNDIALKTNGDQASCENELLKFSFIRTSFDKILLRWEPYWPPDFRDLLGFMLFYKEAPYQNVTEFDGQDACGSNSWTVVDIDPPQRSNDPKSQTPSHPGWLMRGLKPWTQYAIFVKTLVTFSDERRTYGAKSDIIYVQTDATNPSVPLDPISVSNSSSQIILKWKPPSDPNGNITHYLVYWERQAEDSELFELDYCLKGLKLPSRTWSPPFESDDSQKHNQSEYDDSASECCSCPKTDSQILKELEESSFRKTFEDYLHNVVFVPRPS", "T1 sequence (P15208 753-1372 partner limits assumed)": "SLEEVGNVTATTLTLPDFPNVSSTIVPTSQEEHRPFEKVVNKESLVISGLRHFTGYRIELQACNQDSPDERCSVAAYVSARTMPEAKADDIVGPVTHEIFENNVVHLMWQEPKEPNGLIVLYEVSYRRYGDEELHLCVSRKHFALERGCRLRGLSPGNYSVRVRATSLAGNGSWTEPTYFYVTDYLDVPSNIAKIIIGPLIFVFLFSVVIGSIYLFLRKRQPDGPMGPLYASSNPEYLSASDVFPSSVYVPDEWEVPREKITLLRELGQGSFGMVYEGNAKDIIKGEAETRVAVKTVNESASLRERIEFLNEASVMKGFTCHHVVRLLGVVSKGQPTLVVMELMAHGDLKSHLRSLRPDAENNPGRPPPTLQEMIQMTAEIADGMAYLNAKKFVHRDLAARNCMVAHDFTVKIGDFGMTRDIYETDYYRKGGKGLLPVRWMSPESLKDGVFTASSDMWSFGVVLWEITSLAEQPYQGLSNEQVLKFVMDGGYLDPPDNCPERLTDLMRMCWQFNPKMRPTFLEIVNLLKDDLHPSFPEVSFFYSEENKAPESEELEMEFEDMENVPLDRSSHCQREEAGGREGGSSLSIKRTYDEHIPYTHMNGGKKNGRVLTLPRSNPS", "test": "In vivo regional 125I-S961 binding at the BBB after IV monensin pre-treatment", "conditions": "30 min IV pre-treatment, 100 μL of 50 μM monensin in 10% MeOH in 0.1% BSA/LR; 125I-S961 circulated 5 min; olfactory bulb and 10 brain regions; two-way ANOVA treatment p = 0.0008, no post hoc differences; n = 6/group", "protocol": "In anesthetized mice, the jugular vein was exposed and a 100 μL IV injection containing vehicle (10% MeOH in 0.1% BSA/LR) or monensin (50 μM in 10% MeOH in 0.1% BSA/LR) was administered. Thirty min later, a second 100 μL IV injection containing 1 × 10^6 ^125I-[…] was administered and circulated for 5 min. Blood was collected from the descending aorta, the olfactory bulbs and whole brains removed, and whole brains dissected into 10 brain regions according to the method by [Glowinski and Iversen, (1966)]. The amount of radioactivity in each region was counted in a gamma counter (Wizard^2, PerkinElmer) and corrected for the % injected ^125I-[…] (based on injection checks) and divided by the weight of the tissue (g) to get %Inj/g levels."}, "blood-brain barrier [3]": {"molecular_target": "blood-brain barrier", "test": "In situ brain perfusion: 125I-insulin BBB transport (Ki) and vascular binding (Vi) after inhibitor pre-perfusion", "type": "in vivo, mouse", "conditions": "for effect on 125I-insulin transport (Ki) or vascular binding (Vi) (in words): whole brain or olfactory bulb", "protocol": "Following anesthesia, the thoracic cavity was opened and the descending thoracic aorta was clamped and jugular veins were cut to allow blood to drain from the brain vascular space. A 26-gauge butterfly needle was inserted into the left ventricle of the heart and mice were pre-perfused with vehicle or inhibitor at a rate of 2 ml/min. Mice were perfused with vehicle (1% MeOH in Zlokovic buffer: 7.19 g/L NaCl, 0.3 g/L KCl, 0.28 g/L CaCl2, 2.1 g/L NaHCO3, 0.16 g/L KH2PO4, 0.17 g/L anhydrous MgCl2, 0.99 g/L D-glucose and 1% BSA) ± 5 μM monensin or 2 μg/ml filipin III. […] Mice were perfused for timepoints ranging from 0.5 to 5 min. Whole brains, olfactory bulbs, and the hypothalamus were collected, weighed, and measured for radioactivity in a gamma counter. Brain/perfusate ratios (μL/g) were calculated by dividing the cpm per Gram of tissue by the cpm per μL of perfusate and plotted against perfusion time.\nRegression analysis and other statistical analyses were performed using Prism 8.0 (GraphPad Software Inc., San Diego, CA, United States). For microvessel binding assays, the means are reported with their standard error terms and compared by a Student’s t test was. p values less than 0.05 were considered statistically significant. For in situ brain perfusion studies, linear regressions were performed on the brain/serum or brain/perfusate ratios using GraphPad Prism software. Linear regression lines were compared statistically with the Prism 8.0 software package. They are reported with their correlation coefficients (r) and linear regression p values."}, "[4]": {"conditions": "hypothalamus, 2 μg/ml filipin pre-perfusion 10 min"}, "[5]": {"conditions": "olfactory bulb, 2 μg/ml filipin pre-perfusion 10 min"}, "[6]": {"conditions": "whole brain, 2 μg/ml filipin pre-perfusion 10 min"}},
  "data": [
    {"smiles": "CN(C)CCCN1c2ccccc2Sc2ccc(Cl)cc21", "note": "[CPZ, chlorpromazine]", "values": [
      {"measurement": "amount of 125I-insulin internalized, difference vs vehicle (increase)", "setting": "[1]", "value": 76.9, "unit": "%"},
      {"measurement": "microvessel surface binding of 125I-insulin, difference vs vehicle (increase)", "setting": "[1]", "value": 42.2, "unit": "%"}
    ]},
    {"smiles": "CC[C@@]1([C@@H]2O[C@@H]([C@H]3O[C@@](O)(CO)[C@H](C)C[C@@H]3C)C[C@@H]2C)CC[C@H]([C@]2(C)CC[C@]3(C[C@H](O)[C@@H](C)[C@@H]([C@@H](C)[C@@H](OC)[C@H](C)C(=O)O)O3)O2)O1", "note": "[Monensin]", "values": [
      {"measurement": "decrease in hypothalamic BBB transport of 125I-transferrin", "setting": "blood-brain barrier [2]", "value": 80, "unit": "%"},
      {"measurement": "125I-S961 binding (%Inj/g), effect of pre-treatment (in words)", "setting": "insulin receptor", "value": "significantly increased"},
      {"measurement": "effect on 125I-insulin transport (Ki) or vascular binding (Vi) (in words)", "setting": "blood-brain barrier [3]; 5 μM monensin pre-treatment 10 min", "value": "no effect"},
      {"measurement": "amount of 125I-insulin internalized, difference vs vehicle (increase)", "setting": "[1]", "value": 33.7, "unit": "%"},
      {"measurement": "microvessel surface binding of 125I-insulin, difference vs vehicle (increase)", "setting": "[1]", "value": 36.3, "unit": "%"}
    ]},
    {"smiles": "CCCCC[C@@H](O)[C@H]1C(=O)O[C@H](C)[C@@H](O)/C=C/C=C/C=C/C=C/C=C(\\C)[C@@H](O)C[C@H](O)C[C@H](O)C[C@H](O)C[C@H](O)C[C@H](O)C[C@@H]1O", "note": "[Filipin, Filipin III]", "values": [
      {"measurement": "Vi of 125I-insulin", "setting": "blood-brain barrier [3]; [4]", "value": "8.4 ± 2.3", "unit": "µL/g"},
      {"measurement": "effect on 125I-insulin transport (Ki) (in words)", "setting": "blood-brain barrier [3]; [4]", "value": "does limit transport"},
      {"measurement": "Ki of 125I-insulin", "setting": "blood-brain barrier [3]; hypothalamus, 2 μg/ml filipin pre-perfusion 10 min, ns, slope did not significantly differ from zero", "value": "0.94 ± 0.66", "unit": "µL/g/min"},
      {"measurement": "Ki of 125I-insulin", "setting": "blood-brain barrier [3]; hypothalamus, 2 μg/ml filipin pre-perfusion 10 min, ns, slope did not significantly differ from zero, listed as filipin", "value": "0.94 ± 0.43", "unit": "µL/g/min"},
      {"measurement": "Ki of 125I-insulin", "setting": "blood-brain barrier [3]; [5]", "value": "3.06 ± 0.93", "unit": "µL/g/min"},
      {"measurement": "Vi of 125I-insulin", "setting": "blood-brain barrier [3]; [5]", "value": "2.8 ± 3.0", "unit": "µL/g"},
      {"measurement": "effect on 125I-insulin transport (Ki) or vascular binding (Vi) (in words)", "setting": "blood-brain barrier [3]; 2 μg/ml filipin pre-perfusion 10 min", "value": "no effect"},
      {"measurement": "Ki of 125I-insulin", "setting": "blood-brain barrier [3]; [6]", "value": "0.94 ± 0.43", "unit": "µL/g/min"},
      {"measurement": "Vi of 125I-insulin", "setting": "blood-brain barrier [3]; [6]", "value": "5.0 ± 1.5", "unit": "µL/g"}
    ]}
  ]
}
